Read-outs that look alike come from different tables or passages of the source.
Legend:
[1] = test system: Cytosine deaminase (CDA); conditions: read-out: Free CDA / Km; free enzyme; Tris-HCl 50 mM pH 7.0, 37 °C
Text: deamination, released 5-fluorouracil on Cytosine deaminase (CDA)

[2] = test system: Cytosine deaminase (CDA); conditions: read-out: Free CDA / Km; free enzyme; Tris-HCl 50 mM pH 7.0, 37 °C; remark: listed apart in the source

SMILES	Km [1] [µM]	Km [2] [µM]
Nc1nc(=O)[nH]cc1F [5-fluorocytosine]	220	–
Nc1cc[nH]c(=O)n1 [Cytosine]	–	360

Reference: PMC9830863, “Aspergillus Niger thermostable Cytosine deaminase-dextran conjugates with enhanced structure stability, proteolytic resistance, and Antiproliferative activity” (BMC Microbiology, 2023)
